According to the supplement of paper PMC10307832:

Columns and labels:
Assay in all cases: relative viability (nuclei count vs DMSO), 5 days (fraction); higher = more cells survive
[1] = compound: C(C(=O)C(=O)O)Br [Bromopyruvate] + COc1cc2c(Oc3ccc(NC(=O)C4(C(=O)Nc5ccc(F)cc5)CC4)cc3F)ccnc2cc1OCCCN1CCOCC1 [Foretinib] (partner 0.25 µM)
Outline: (§1)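 Cells from lung cancer lines were seeded into 1536-well plates and, one day later, dosed by pin tool. Treatments were either a single drug or a fixed dose of an anchor drug with five library-drug doses (not always all listed) in √10 steps. After 5 days, nuclei were stained in a one-step fixation (final 0.05% Triton X-100, 1% formaldehyde, 1 ug/ml Hoechst) and counted on 4× images, and relative viability is the treated-to-vehicle nuclei ratio, as the median of duplicate plates.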

[2] = compound: C(C(=O)C(=O)O)Br [Bromopyruvate] + Cc1nc(NC(=O)N2CCC[C@H]2C(N)=O)sc1-c1ccnc(C(C)(C)C(F)(F)F)c1 [Alpelisib] (partner 2 µM)
Outline: as §1

[3] = compound: CC(O)(CS(=O)(=O)c1ccc(F)cc1)C(=O)Nc1ccc(C#N)c(C(F)(F)F)c1 [Bicalutamide] + O=C(CCCCCCC(=O)Nc1ccccc1)NO [Vorinostat] (partner 1 µM)
Outline: as §1

[4] = compound: C(C(=O)C(=O)O)Br [Bromopyruvate] + O=C(CCCCCCC(=O)Nc1ccccc1)NO [Vorinostat] (partner 1 µM)
Outline: as §1

For UMC-11, the relative viability ([1]; first compound 1 µM) was 1.05, the relative viability ([1]; first compound 3.162 µM) was 1.02 and the relative viability ([1]; first compound 10 µM) was 1.04. The relative viability ([1]; first compound 31.62 µM) was 0.989, the relative viability ([1]; first compound 100 µM) was 0.987 and the relative viability ([2]; first compound 1 µM) was 1.12. It also gave a relative viability ([2]; first compound 3.162 µM) of 1.01, a relative viability ([2]; first compound 10 µM) of 0.983 and a relative viability ([2]; first compound 31.62 µM) of 0.997. The relative viability ([2]; first compound 100 µM) was 1.01, the relative viability ([3]; first compound 0.08 µM) was 0.436 and the relative viability ([3]; first compound 0.253 µM) was 0.387. For the same cell line, the relative viability ([3]; first compound 0.8 µM) was 0.403, the relative viability ([3]; first compound 2.53 µM) was 0.264 and the relative viability ([4]; first compound 1 µM) was 0.479. For the same cell line, the relative viability ([4]; first compound 3.162 µM) was 0.357, the relative viability ([4]; first compound 10 µM) was 0.289 and the relative viability ([4]; first compound 31.62 µM) was 0.274. For the same cell line, the relative viability ([4]; first compound 100 µM) was 0.2.
